Experiments:
[1] = target: T1, recombinant ARS1 (Sorghum bicolor, UniProt C5Y4Z2); test: Polyketide synthase enzyme assay, 5-alkylresorcinol formation (GC-MS, m/z 268); assay type: biochemical; details: for activity as starter unit (in words): malonyl-CoA extender
Protocol: (§1) Reactions were quenched by addition of 10 μL of 20% HCl, and products were extracted by phase partitioning with 1 ml of ethyl acetate. The organic phase (upper layer) obtained by centrifugation at ˜14,000×g for 1 min was transferred to a fresh tube, dried under vacuum, and subsequently analyzed by GC-EI-MS as a trimethysilyl (TMS) derivative.
(§2) Reactions were quenched by addition of 10 μL of 20% HCl. The products were extracted as described above, and were separated by thin layer chromatography (silica gel 60 F254; chloroform:ethyl acetate=70:30; 15 min). Product detection and formation was quantified through the use of the Cyclone storage phosphor system and OptiQuant 3.0 image analysis software (PerkinElmer, Wellesley, Mass.).
(§3) Recombinant enzyme studies were next performed to examine substrate preferences for the 3 putative type III PKS enzymes maximally expressed in root hairs. […] Acyl-CoAs varying in length and degree of saturation were tested in enzymatic assays with all three recombinant enzymes, as well as the non-linear starter units benzoyl-CoA, isovaleryl-CoA, and isobutryl-CoA used by several other plant type III PKS enzymes (Austin and Noel, supra).

[2] = target: T2, recombinant ARS2 (Sorghum bicolor, UniProt C5YRS1); test: as above; assay type: biochemical; details: for activity as starter unit (in words): malonyl-CoA extender
Protocol: as §1, §2, §3

[3] = tested on: recombinant Os05g12180; test: Polyketide synthase enzyme assay, alkylresorcinol synthase activity; assay type: biochemical, Oryza sativa
Protocol: (§4) Polyketide synthase enzyme assays, performed in triplicate, contained 100 mM potassium phosphate buffer (pH 7.0), 40 μM malonyl-CoA, 25 μM starter unit (e.g., palmitoyl-CoA), and 2 μg protein in a 200 μL volume at 30° C. for 15 min. […] Reactions were quenched by addition of 10 μL of 20% HCl, and products were extracted by phase partitioning with 1 ml of ethyl acetate. The organic phase (upper layer) obtained by centrifugation at ˜14,000×g for 1 min was transferred to a fresh tube, dried under vacuum, and subsequently analyzed by GC-EI-MS as a trimethysilyl (TMS) derivative. Product formation was quantified using selective ion monitoring at m/z 268, a fragment ion common to all alkylresorcinols, generated by benzylic cleavage of the alkyl side chain. The identification of the m/z 268 [(5-methyl-1,3 phenylene)bis(oxy)bis(TMS)]^+ base ion and the parent [M]^+ provide confirmation of the 5-alkylresorcinolic structure as well as the length and degree of saturation of the associated side chain (Occolowitz, 1964. Anal. Chem. 36:2177-2181; Suzuki et al. 1996, supra; Suzuki at al. 2003, supra).
(§5) Enzyme assays, performed in triplicate, for starter unit CoA kinetics contained 100 mM potassium phosphate buffer (pH 7.0), 40 μM [2-^14C]-malonyl-CoA (50-60 mCi/mmol, 1.85-2.22 GBq/mmol; American Radiolabeled Chemicals, Inc., St. Louis, Mo.), 1.43-10 μM starter unit (e.g., palmitoyl-CoA), and 0.75 μg protein in a 200 μL volume at 30° C. for 5 min. Enzyme assays for malonyl-CoA kinetics contained 100 mM potassium phosphate buffer (pH 7.0), 1.66-25 μM [2-^14C]-malonyl-CoA, 25 μM starter unit (palmitoleoyl-CoA), and 0.75 μg protein in a 200 μL volume at 30° C. for 5 min. Reactions were quenched by addition of 10 μL of 20% HCl. The products were extracted as described above, and were separated by thin layer chromatography (silica gel 60 F254; chloroform:ethyl acetate=70:30; 15 min). Product detection and formation was quantified through the use of the Cyclone storage phosphor system and OptiQuant 3.0 image analysis software (PerkinElmer, Wellesley, Mass.). Data were fit to the Michaelis-Menten equation using the Sigma Plot 9.01 enzyme kinetics module (Systat, Inc., San Jose, Calif.).
(§6) To explore this possibility, the predicted open reading frames encoded by O. sativa (cv. Nipponbare) LOC_Os05g12180, LOC_Os10g08620, and LOC_Os10g07040, were also expressed in E. coli as N-terminal polyhistidine fusions, and tested for alkylresorcinol synthase activity with the same panel of fatty acyl-CoA substrates used for recombinant ARS1 and ARS2 enzymatic studies (FIG. 4).

[4] = tested on: recombinant Os10g07040; test: as above; assay type: biochemical, Oryza sativa
Protocol: as §4, §5, §6

[5] = tested on: recombinant Os10g08620; test: as above; assay type: biochemical, Oryza sativa
Protocol: as §4, §5, §6

[6] = target: T1, recombinant ARS1; test: Steady-state kinetics with [2-14C]-malonyl-CoA, TLC/phosphor imaging; assay type: biochemical; details: for Km: same conditions as kcat; for kcat: starter kinetics: 40 μM [2-14C]-malonyl-CoA, 1.43-10 μM starter, malonyl-CoA kinetics: 25 μM palmitoleoyl-CoA starter, pH 7.0, 30° C., 5 min
Protocol: as §5

[7] = target: T2, recombinant ARS2; test: as above; assay type: biochemical; details: for Km: same conditions as kcat; for kcat: starter kinetics: 40 μM [2-14C]-malonyl-CoA, 1.43-10 μM starter, malonyl-CoA kinetics: 25 μM palmitoleoyl-CoA starter, pH 7.0, 30° C., 5 min
Protocol: as §5

[8] = 25 μM starter unit, 40 μM malonyl-CoA, pH 7.0, 30° C., 15 min

T2 sequence (C5YRS1 entry or part of it): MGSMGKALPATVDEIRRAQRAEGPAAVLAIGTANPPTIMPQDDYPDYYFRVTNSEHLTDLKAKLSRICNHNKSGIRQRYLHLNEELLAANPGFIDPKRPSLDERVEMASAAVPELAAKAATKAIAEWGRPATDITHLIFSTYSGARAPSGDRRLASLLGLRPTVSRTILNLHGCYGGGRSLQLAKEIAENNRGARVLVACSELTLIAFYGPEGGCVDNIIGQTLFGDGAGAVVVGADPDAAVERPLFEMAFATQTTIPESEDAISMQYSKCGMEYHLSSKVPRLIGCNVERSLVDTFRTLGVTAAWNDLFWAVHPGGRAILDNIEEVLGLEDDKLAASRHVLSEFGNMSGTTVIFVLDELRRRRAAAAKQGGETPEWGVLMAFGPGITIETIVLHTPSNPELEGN
T1 sequence (C5Y4Z2 entry or part of it): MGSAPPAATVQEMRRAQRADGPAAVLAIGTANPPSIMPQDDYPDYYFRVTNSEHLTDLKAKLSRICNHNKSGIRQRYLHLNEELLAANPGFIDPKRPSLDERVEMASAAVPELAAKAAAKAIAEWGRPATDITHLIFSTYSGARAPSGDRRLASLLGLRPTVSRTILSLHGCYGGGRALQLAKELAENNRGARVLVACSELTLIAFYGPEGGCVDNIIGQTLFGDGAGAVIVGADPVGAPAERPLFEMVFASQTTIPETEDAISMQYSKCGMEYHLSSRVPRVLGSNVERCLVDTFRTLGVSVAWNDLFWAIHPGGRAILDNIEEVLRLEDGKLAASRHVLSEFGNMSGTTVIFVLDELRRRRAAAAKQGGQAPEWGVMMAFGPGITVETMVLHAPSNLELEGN

CCCCCC(=O)SCCNC(=O)CCNC(=O)[C@H](O)C(C)(C)COP(=O)(O)OP(=O)(O)OC[C@H]1O[C@@H](n2cnc3c(N)ncnc32)[C@H](O)[C@@H]1OP(=O)(O)O [hexanoyl-CoA]
triketide pyrone derailment product, share of the total moles product derived from the starter [1]: approximately 9% | triketide pyrone derailment product, share of the total moles product derived from the starter [2]: approximately 9% | activity as starter unit (in words) [3]: No activity | activity as starter unit (in words) [4]: No activity | activity as starter unit (in words) [5]: No activity

CCCCCCCCCCCCCC(=O)SCCNC(=O)CCNC(=O)[C@H](O)C(C)(C)COP(=O)(O)OP(=O)(O)OC[C@H]1O[C@@H](n2cnc3c(N)ncnc32)[C@H](O)[C@@H]1OP(=O)(O)O [myristoyl-CoA]
triketide pyrone derailment product, share of the total moles product derived from the starter [1]: ~15% | maximal 5-alkylresorcinol-forming activity [1, 8]: 81.0 pkat mg^−1 | triketide pyrone derailment product, share of the total moles product derived from the starter [2]: < 5%

CCCCCC/C=C\CCCCCCCC(=O)SCCNC(=O)CCNC(=O)[C@H](O)C(C)(C)COP(=O)(O)OP(=O)(O)OC[C@H]1O[C@@H](n2cnc3c(N)ncnc32)[C@H](O)[C@@H]1OP(=O)(O)O [C16:1-CoA, palmitoleoyl-CoA]
maximal 5-alkylresorcinol-forming activity [2, 8]: 60.1 pkat mg^1 | Km [6]: 2.3 µM | kcat [6]: 0.0183 s⁻¹ | Km [7]: 3.6 µM | kcat [7]: 0.0233 s⁻¹

CC(C)(COP(=O)(O)OP(=O)(O)OC[C@H]1O[C@@H](n2cnc3c(N)ncnc32)[C@H](O)[C@@H]1OP(=O)(O)O)[C@@H](O)C(=O)NCCC(=O)NCCSC(=O)c1ccccc1 [benzoyl-CoA]
activity as starter unit (in words) [1]: No activity | activity as starter unit (in words) [2]: No activity

CCCCCCCCCCCCCCCC(=O)SCCNC(=O)CCNC(=O)[C@H](O)C(C)(C)COP(=O)(O)OP(=O)(O)OC[C@H]1O[C@@H](n2cnc3c(N)ncnc32)[C@H](O)[C@@H]1OP(=O)(O)O [C16:0-CoA, palmitoyl-CoA]
Km [6]: 2.3 µM | kcat [6]: 0.0132 s⁻¹ | Km [7]: 4.1 µM | kcat [7]: 0.0183 s⁻¹

CCCCC/C=C\C/C=C\C/C=C\C/C=C\CCCC(=O)SCCNC(=O)CCNC(=O)[C@H](O)C(C)(C)COP(=O)(O)OP(=O)(O)OC[C@H]1O[C@@H](n2cnc3c(N)ncnc32)[C@H](O)[C@@H]1OP(=O)(O)O [arachidonoyl-CoA]
activity as starter unit (in words) [3]: No activity | activity as starter unit (in words) [4]: No activity | activity as starter unit (in words) [5]: No activity

CCCCCCCC(=O)SCCNC(=O)CCNC(=O)[C@H](O)C(C)(C)COP(=O)(O)OP(=O)(O)OC[C@H]1O[C@@H](n2cnc3c(N)ncnc32)[C@H](O)[C@@H]1OP(=O)(O)O [capryloyl-CoA]
triketide pyrone derailment product, share of the total moles product derived from the starter [1]: ~33%

C=CC/C=C\C/C=C\CCCCCCCCSCCNC(=O)CCNC(=O)[C@H](O)C(C)(C)COP(=O)(O)OP(=O)(O)OC[C@H]1O[C@@H](n2cnc3c(N)ncnc32)[C@H](O)[C@@H]1OP(=O)(O)O [hexadecatrienyl-CoA, (9Z,12Z)-Hexadeca-9,12,15-trienyl-CoA]
activity as starter unit (in words) [1]: utilized | activity as starter unit (in words) [2]: utilized

CC(C)CC(=O)SCCNC(=O)CCNC(=O)[C@H](O)C(C)(C)COP(=O)(O)OP(=O)(O)OC[C@H]1O[C@@H](n2cnc3c(N)ncnc32)[C@H](O)[C@@H]1OP(=O)(O)O [isovaleryl-CoA]
activity as starter unit (in words) [1]: No activity | activity as starter unit (in words) [2]: No activity

CC(C)C(=O)SCCNC(=O)CCNC(=O)[C@H](O)C(C)(C)COP(=O)(O)OP(=O)(O)OC[C@H]1O[C@@H](n2cnc3c(N)ncnc32)[C@H](O)[C@@H]1OP(=O)(O)O [isobutyryl-CoA]
activity as starter unit (in words) [1]: No activity | activity as starter unit (in words) [2]: No activity

CC(C)(COP(=O)(O)OP(=O)(O)OC[C@H]1O[C@@H](n2cnc3c(N)ncnc32)[C@H](O)[C@@H]1OP(=O)(O)O)[C@@H](O)C(=O)NCCC(=O)NCCSC(=O)CC(=O)O [Malonyl-CoA, malonyl-CoA]
Km [6]: 5.2 µM | kcat [6]: 0.0148 s⁻¹ | Km [7]: 5.8 µM | kcat [7]: 0.0123 s⁻¹

Source: patent publication US9248145B2, “Two alkylresorcinol synthase genes from sorghum; cloning, expression, transformation and characterization” (The United States of America, as represented by The …, priority 2010, dated 2016)
